Reference: ChEMBL document CHEMBL5303765, “Data for DCP probe BAY-7081” (2023)

Tests used:
[1] = target: High affinity cGMP-specific 3',5'-cyclic phosphodiesterase 9A (Homo sapiens, UniProt O76083); assay: Panlabs assay PDE9A2; set-up: compound concentration 10 uM
[2] = target: T1, Phosphorylase b kinase gamma catalytic chain, liver/testis isoform (Homo sapiens) (UniProt P15735); assay: PHKG2 SGC Tm panel (DSF); conditions: for ΔTm: Compound concentration 10.0 uM
T1 sequence (whole entry): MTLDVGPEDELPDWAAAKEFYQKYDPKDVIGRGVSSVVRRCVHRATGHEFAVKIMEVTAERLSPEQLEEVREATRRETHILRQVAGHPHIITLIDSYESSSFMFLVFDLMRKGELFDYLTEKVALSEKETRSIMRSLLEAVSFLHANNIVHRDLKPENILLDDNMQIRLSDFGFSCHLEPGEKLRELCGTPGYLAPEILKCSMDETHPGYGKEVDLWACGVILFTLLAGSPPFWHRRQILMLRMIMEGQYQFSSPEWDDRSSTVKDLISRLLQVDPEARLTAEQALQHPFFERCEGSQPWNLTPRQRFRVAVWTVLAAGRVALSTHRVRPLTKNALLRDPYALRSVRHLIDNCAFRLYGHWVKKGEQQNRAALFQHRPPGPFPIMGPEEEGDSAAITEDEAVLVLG

[3] = target: 3',5'-cyclic-AMP phosphodiesterase 4D (Homo sapiens) (UniProt Q08499); assay: Panlabs assay PDE4D2; set-up: compound concentration 10 uM; conditions: at 10 µM
[4] = target: Cannabinoid receptor 2 (Homo sapiens) (UniProt P34972); assay: Cannabinoid CB2 Eurofins Panlabs panel; conditions: Compound concentration 10.0 uM
[5] = target: Epidermal growth factor receptor (Homo sapiens) (UniProt P00533); assay: Protein Tyrosine Kinase, EGF Receptor Eurofins Panlabs panel; conditions: Compound concentration 10.0 uM
[6] = target: Thromboxane-A synthase (Homo sapiens) (UniProt P24557); assay: Thromboxane Synthase Eurofins Panlabs panel; conditions: concentration not given here
[7] = target: Alpha-1A adrenergic receptor (Homo sapiens) (UniProt P35348); conditions: Compound concentration 10.0 uM
[8] = target: Muscarinic acetylcholine receptor M3 (Homo sapiens) (UniProt P20309); assay: Muscarinic M3 Eurofins Panlabs panel; conditions: Compound concentration 10.0 uM
[9] = target: Monoamine oxidase B (MAO-B) (Homo sapiens, UniProt P27338); assay: Monoamine Oxidase MAO-B Eurofins Panlabs panel; conditions: compound concentration 10 uM
[10] = target: T2, GABA-A receptor; anion channel (Rattus norvegicus) (UniProt O09028+P15431+P18506+P18508+P19969+P20236+P23574+P23576+P28471+P28473+P30191+P62813+P63079+P63138+Q91ZM7+Q9ES14); assay: GABAA, Muscimol, Central Eurofins Panlabs panel; assay type: protein-complex assay; conditions: Compound concentration 10.0 uM
[11] = target: Insulin receptor (Rattus norvegicus) (UniProt P15127); assay: Insulin Eurofins Panlabs panel; conditions: Compound concentration 10.0 uM
[12] = target: cAMP and cAMP-inhibited cGMP 3',5'-cyclic phosphodiesterase 10A (Homo sapiens, UniProt Q9Y233); assay: 3H-cAMP and 3H-cGMP Scintillation Proximity Assay (PDE10A)
[13] = target: Acetylcholinesterase (Homo sapiens) (UniProt P22303); assay: Cholinesterase, Acetyl, ACES Eurofins Panlabs panel; conditions: Compound concentration 10.0 uM
[14] = target: T3, Muscarinic acetylcholine receptor M4 (Homo sapiens) (UniProt P08173); assay: Muscarinic M4 Eurofins Panlabs panel; conditions: Compound concentration 10.0 uM
T3 sequence (whole entry): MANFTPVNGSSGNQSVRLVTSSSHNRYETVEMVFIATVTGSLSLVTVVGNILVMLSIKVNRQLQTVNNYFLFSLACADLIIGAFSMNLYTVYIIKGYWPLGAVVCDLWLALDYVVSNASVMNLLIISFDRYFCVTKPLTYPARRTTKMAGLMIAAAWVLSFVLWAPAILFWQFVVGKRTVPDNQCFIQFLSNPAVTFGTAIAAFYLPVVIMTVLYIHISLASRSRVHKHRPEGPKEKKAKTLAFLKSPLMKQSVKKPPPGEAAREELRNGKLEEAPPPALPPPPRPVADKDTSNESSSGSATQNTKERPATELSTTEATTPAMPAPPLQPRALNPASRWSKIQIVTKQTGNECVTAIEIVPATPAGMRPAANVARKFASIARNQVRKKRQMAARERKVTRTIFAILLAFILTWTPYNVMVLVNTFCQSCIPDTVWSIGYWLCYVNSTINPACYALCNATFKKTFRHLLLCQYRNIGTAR

[15] = target: Sodium-dependent dopamine transporter (Homo sapiens) (UniProt Q01959); assay: Uptake, Dopamine - Antagonist Eurofins Panlabs panel; conditions: Compound concentration 10.0 uM
[16] = target: Dual 3',5'-cyclic-AMP and -GMP phosphodiesterase 11A (Homo sapiens, UniProt Q9HCR9); assay: 3H-cAMP and 3H-cGMP Scintillation Proximity Assay (PDE11A)
[17] = target: hERG (KCNH2) potassium channel (Homo sapiens, UniProt Q12809); assay: Potassium Channel hERG Eurofins Panlabs panel; conditions: compound concentration 10 uM
[18] = target: GABA B receptor (Rattus norvegicus) (UniProt Q9Z0U4+O88871); assay: GABAB, Non-Selective Eurofins Panlabs panel; assay type: protein-complex assay; conditions: Compound concentration 10.0 uM
[19] = target: Endothelin receptor type B (Homo sapiens) (UniProt P24530); assay: Endothelin ETB Eurofins Panlabs panel; conditions: Compound concentration 10.0 uM
Rattus norvegicus = organism: Rattus norvegicus; assay: Imidazoline I2, Central Eurofins Panlabs panel; conditions: Compound concentration 10.0 uM
[20] = target: 3-hydroxy-3-methylglutaryl-coenzyme A reductase (Homo sapiens) (UniProt P04035); assay: HMG-CoA Reductase Eurofins Panlabs panel; conditions: Compound concentration 10.0 uM
[21] = target: Prostaglandin E2 receptor EP1 subtype (Homo sapiens) (UniProt P34995); assay: Prostanoid EP1 Eurofins Panlabs panel; conditions: Compound concentration 10.0 uM
[22] = target: T4, 5-hydroxytryptamine receptor 2C (Homo sapiens) (UniProt P28335); assay: Serotonin (5-Hydroxytryptamine) 5-HT2C Eurofins Panlabs panel; conditions: Compound concentration 10.0 uM
T4 sequence (whole entry): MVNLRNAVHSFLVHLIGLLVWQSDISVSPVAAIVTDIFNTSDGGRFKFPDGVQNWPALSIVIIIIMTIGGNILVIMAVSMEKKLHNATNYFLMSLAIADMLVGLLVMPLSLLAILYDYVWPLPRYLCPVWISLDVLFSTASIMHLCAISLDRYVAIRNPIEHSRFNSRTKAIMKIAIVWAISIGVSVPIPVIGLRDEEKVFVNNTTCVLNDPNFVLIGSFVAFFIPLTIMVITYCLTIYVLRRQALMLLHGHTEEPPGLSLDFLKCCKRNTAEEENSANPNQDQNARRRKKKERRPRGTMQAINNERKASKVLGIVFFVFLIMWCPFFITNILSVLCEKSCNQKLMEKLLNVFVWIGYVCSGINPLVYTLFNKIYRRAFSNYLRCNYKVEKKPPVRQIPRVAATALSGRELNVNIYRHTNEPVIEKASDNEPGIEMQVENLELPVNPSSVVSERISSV

[23] = target: B1 bradykinin receptor (Homo sapiens) (UniProt P46663); assay: Bradykinin B1 Eurofins Panlabs panel; conditions: Compound concentration 10.0 uM
[24] = target: T2, GABA-A receptor; anion channel (Rattus norvegicus); assay: GABAA, Flunitrazepam, Central Eurofins Panlabs panel; assay type: protein-complex assay; conditions: Compound concentration 10.0 uM

Sequence of Alpha-1A adrenergic receptor (Homo sapiens) (P35348 whole entry): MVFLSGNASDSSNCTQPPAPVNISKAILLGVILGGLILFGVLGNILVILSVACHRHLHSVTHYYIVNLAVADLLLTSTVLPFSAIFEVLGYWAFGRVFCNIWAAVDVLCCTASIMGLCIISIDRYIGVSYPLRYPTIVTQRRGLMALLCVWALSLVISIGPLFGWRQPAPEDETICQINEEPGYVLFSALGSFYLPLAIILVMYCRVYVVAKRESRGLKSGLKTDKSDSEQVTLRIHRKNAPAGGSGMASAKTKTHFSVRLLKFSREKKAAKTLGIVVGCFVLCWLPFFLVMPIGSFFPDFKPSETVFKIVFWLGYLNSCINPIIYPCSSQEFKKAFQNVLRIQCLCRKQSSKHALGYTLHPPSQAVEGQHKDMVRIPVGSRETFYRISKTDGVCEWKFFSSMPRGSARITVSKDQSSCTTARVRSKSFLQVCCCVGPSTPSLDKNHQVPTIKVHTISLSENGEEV
Sequence of Insulin receptor (Rattus norvegicus) (P15127 27-759 limits assumed): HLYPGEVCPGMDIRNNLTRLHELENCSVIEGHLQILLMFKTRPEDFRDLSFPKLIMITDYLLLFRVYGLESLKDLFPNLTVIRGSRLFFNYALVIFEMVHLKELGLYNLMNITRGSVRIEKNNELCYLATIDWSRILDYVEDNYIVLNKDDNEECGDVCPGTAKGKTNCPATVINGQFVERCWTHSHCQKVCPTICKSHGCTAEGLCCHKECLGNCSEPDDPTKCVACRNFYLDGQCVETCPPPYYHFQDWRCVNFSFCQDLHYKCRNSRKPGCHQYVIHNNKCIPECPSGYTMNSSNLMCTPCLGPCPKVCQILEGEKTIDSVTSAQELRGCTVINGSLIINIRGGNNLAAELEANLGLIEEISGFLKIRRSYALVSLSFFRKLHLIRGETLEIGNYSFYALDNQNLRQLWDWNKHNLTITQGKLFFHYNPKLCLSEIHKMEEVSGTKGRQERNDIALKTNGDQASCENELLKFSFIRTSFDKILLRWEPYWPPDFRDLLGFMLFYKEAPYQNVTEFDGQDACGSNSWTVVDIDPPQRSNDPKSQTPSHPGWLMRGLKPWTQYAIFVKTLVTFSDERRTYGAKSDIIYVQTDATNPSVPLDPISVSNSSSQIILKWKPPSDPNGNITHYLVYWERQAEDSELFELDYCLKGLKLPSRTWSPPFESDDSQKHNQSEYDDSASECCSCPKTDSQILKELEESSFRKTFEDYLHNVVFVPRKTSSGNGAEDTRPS
Sequence of Insulin receptor (Rattus norvegicus) (P15127 764-1383 limits assumed): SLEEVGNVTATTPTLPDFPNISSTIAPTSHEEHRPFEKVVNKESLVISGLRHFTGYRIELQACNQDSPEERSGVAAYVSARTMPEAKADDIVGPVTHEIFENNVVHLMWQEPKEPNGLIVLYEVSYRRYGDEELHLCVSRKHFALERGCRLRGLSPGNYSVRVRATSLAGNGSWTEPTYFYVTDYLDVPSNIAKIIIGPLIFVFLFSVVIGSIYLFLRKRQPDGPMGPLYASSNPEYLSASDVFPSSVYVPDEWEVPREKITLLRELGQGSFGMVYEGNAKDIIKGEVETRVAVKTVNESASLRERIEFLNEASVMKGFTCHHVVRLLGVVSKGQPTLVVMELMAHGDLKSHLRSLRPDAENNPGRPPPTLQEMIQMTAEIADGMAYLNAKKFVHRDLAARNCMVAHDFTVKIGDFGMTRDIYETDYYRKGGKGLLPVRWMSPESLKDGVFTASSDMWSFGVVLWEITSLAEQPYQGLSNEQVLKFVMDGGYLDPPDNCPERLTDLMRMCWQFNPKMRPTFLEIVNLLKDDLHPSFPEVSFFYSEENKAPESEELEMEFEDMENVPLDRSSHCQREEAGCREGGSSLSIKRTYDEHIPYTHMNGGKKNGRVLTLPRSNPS
Sequence of Sodium-dependent dopamine transporter (Homo sapiens) (Q01959 whole entry): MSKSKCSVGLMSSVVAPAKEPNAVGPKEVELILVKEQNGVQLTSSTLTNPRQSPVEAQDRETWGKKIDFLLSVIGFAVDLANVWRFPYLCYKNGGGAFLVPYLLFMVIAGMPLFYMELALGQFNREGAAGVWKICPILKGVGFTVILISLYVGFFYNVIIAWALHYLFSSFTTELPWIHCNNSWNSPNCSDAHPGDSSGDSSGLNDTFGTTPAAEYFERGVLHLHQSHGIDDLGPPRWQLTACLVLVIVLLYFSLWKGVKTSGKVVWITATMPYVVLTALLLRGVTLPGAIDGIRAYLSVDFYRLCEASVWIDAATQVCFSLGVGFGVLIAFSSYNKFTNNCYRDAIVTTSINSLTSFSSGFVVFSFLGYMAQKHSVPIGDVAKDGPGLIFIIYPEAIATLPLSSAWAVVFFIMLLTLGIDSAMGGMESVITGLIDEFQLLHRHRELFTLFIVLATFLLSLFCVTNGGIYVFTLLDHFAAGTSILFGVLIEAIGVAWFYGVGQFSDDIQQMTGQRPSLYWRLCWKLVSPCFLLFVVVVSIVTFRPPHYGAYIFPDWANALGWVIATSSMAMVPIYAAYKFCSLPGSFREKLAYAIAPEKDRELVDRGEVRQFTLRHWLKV
Sequence of 3-hydroxy-3-methylglutaryl-coenzyme A reductase (Homo sapiens) (P04035 whole entry): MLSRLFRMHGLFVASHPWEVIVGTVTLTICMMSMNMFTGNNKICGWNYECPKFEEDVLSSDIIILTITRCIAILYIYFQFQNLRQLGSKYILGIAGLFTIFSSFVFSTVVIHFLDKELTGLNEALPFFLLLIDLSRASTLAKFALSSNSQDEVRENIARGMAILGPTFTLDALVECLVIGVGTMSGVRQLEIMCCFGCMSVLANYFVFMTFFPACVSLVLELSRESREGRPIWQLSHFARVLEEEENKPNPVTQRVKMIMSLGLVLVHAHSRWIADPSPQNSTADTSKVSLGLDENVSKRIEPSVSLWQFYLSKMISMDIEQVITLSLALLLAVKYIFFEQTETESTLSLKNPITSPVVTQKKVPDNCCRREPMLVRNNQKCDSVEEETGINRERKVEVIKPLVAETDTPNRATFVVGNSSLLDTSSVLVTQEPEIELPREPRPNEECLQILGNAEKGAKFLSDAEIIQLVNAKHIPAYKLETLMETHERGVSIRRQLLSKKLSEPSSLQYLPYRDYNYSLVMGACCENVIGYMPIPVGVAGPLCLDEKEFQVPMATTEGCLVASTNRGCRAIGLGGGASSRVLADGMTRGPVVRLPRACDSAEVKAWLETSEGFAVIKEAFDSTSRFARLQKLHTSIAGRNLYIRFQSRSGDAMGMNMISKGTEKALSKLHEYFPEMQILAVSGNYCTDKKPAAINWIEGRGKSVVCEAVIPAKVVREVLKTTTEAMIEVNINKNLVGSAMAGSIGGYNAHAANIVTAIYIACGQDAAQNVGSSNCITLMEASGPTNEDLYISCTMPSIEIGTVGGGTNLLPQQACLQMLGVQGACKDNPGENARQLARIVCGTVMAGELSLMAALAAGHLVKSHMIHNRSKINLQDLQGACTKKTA
Sequence of Cannabinoid receptor 2 (Homo sapiens) (P34972 whole entry): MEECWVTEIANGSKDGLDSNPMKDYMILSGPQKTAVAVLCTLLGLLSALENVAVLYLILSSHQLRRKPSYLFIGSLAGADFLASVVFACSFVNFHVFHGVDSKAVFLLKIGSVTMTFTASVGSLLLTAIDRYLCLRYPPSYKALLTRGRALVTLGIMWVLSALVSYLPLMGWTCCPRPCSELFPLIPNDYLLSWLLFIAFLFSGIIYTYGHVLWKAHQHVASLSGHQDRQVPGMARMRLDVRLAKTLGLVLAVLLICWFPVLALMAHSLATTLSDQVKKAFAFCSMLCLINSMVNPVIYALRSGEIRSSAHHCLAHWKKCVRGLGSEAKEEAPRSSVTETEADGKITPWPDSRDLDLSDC
Sequence of Thromboxane-A synthase (Homo sapiens) (P24557 whole entry): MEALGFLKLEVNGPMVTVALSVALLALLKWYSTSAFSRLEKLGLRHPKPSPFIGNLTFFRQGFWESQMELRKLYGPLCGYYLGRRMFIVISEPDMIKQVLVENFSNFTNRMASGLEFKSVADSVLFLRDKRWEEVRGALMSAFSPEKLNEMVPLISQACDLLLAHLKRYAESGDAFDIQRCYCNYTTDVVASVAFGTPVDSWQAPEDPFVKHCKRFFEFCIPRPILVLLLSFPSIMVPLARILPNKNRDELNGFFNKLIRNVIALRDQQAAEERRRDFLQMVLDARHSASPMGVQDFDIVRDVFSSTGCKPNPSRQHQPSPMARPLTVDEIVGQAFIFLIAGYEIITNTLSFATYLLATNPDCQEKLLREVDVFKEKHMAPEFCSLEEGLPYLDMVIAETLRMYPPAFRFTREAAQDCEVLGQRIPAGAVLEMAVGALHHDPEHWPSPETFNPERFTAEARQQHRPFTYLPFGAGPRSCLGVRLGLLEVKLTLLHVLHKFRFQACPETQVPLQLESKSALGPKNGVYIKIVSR
Sequence of High affinity cGMP-specific 3',5'-cyclic phosphodiesterase 9A (O76083 whole entry, canonical isoform): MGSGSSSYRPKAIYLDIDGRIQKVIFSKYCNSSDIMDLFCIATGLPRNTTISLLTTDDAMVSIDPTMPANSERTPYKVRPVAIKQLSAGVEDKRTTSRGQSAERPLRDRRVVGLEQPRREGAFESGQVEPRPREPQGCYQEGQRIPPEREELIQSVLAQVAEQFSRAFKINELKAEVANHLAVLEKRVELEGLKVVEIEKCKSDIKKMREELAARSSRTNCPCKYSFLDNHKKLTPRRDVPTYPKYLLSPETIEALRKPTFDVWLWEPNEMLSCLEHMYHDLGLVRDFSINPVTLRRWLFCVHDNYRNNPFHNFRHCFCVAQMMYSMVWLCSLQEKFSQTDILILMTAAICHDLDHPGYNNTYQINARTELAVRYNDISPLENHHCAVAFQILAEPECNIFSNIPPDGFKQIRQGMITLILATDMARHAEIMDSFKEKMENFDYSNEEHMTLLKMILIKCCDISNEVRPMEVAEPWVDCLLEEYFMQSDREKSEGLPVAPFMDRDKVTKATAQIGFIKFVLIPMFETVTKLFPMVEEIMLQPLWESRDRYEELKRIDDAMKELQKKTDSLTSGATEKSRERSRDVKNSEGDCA

For `CCC[C@@H]1CNCc2c1[nH]c(=O)c(C#N)c2N1CCC2(CC1)CC2`, the IC50 [1] was 7.47 µM (not active), the delta Tm Staurosporine positive control [2] was 21.5 and the ΔTm [2] was -0.827. For the same molecule, the inhibition [3] was 19.1%.
Work on `CCC[C@H]1CNCc2c1[nH]c(=O)c(C#N)c2N1CCC2(CC1)CC2` yielded an inhibition [4] of -1%, an inhibition [5] of 9% and an inhibition [6] of 0%. The inhibition [7] was 6.38%, the inhibition [8] was -9% and the inhibition at 10 µM [9] was 2%. The inhibition [10] was 25%, the inhibition [11] was 10% and the IC50 [12] was > 10 µM (not active). It also gave an inhibition [13] of 5%, an inhibition [14] of -4% and an inhibition [15] of 22%. For the same molecule, the delta Tm Staurosporine positive control [2] was 21.5, the ΔTm [2] was -0.755 and the IC50 [16] was 6.6 µM (not active). The inhibition at 10 µM [17] was 18.5%, the inhibition [18] was -1% and the inhibition [19] was 8%. It also gave an inhibition (Rattus norvegicus) of 32.5%, an inhibition [20] of 8% and an inhibition [21] of 8%. For the same molecule, the inhibition [22] was 5%, the inhibition [23] was 1% and the inhibition [24] was 16.5%.
